Test systems include U-251; SF-295; CCRF-CEM; UO-31; K562; NCI/ADR-RES; KM12; PC-3; RPMI-8226; MDA-MB-435; OVCAR-5; HCT-15; A498; SK-MEL-2; MDA-MB-231; DU-145; 786-0; IGROV-1; Hs-578T; SK-OV-3.
Common to all, as to assay: DTP human tumour cell line panel, 48 h

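In this assay, cells in 96-well plates receive the compound at five concentrations for 48 hours. Endpoints are linearly interpolated between the surrounding concentrations. GI50 is the concentration that inhibits growth by half.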 The source made the active and inactive calls. Rule as the data show it: active = GI50 up to about 1.1 µM and inactive = higher.

On to `COc1cc(OCc2ccc3nc(-c4ccccc4)c(N)nc3c2)cc(OC)c1OC`, for which the GI50 was 32.5 µM (inactive) in the experiment with U-251; 26 µM (inactive) in the experiment with SF-295; 16.7 µM (inactive) in the experiment with CCRF-CEM; 10.7 µM (inactive) in the experiment with UO-31; 15.5 µM (inactive) in the experiment with K562; 20.7 µM (inactive) in the experiment with NCI/ADR-RES. The GI50 was 18.6 µM (inactive) with KM12; 17.8 µM (inactive) with PC-3; 8.79 µM (inactive) in the experiment with RPMI-8226; 19.1 µM (inactive) in the experiment on MDA-MB-435; 17.6 µM (inactive) with OVCAR-5; 17.3 µM in the experiment on HCT-15. Also, the GI50 with A498 was 27.1 µM (inactive); in the experiment on SK-MEL-2, 19.9 µM (inactive); in the experiment on MDA-MB-231, 25.5 µM (inactive); in the experiment on DU-145, 22.2 µM (inactive); with 786-0, 30.8 µM (inactive); with IGROV-1 it was 22.2 µM (inactive). Besides, the GI50 with Hs-578T is 21.2 µM (inactive).

In the case of `CN(C)c1ccc(/N=N\c2cccc3ncccc23)cc1`, the GI50 with U-251 was > 74.1 µM (inactive); in the experiment on SF-295, > 78 µM (inactive); in the experiment on SK-OV-3 it was > 100 µM (inactive); with CCRF-CEM, 51.3 µM (inactive); with UO-31 it was 8.53 µM (inactive); with K562, 35.4 µM (inactive). In addition, the GI50 with NCI/ADR-RES is 49 µM (inactive); with KM12 it was 33.6 µM (inactive); with PC-3, 42.6 µM (inactive); in the experiment on RPMI-8226, 18.1 µM (inactive); with MDA-MB-435 it was 29.4 µM (inactive); in the experiment on HCT-15 it was 51.9 µM. Moreover, the GI50 was > 100 µM (inactive) with SK-MEL-2; 41.1 µM (inactive) in the experiment on MDA-MB-231; 75.7 µM (inactive) with DU-145; > 80.4 µM (inactive) in the experiment with 786-0; < 0.0159 µM (active) in the experiment with IGROV-1; 44.7 µM (inactive) in the experiment with Hs-578T.

`CCOC(=O)C1=C(C)NC(C)=C(C(=O)OCC)C1c1ccc(C)cc1`: the GI50 with U-251 is 46.9 µM (inactive); in the experiment on SF-295, 27.4 µM (inactive); in the experiment with SK-OV-3, 57 µM (inactive); in the experiment on CCRF-CEM it was 0.0193 µM (active); in the experiment with UO-31 it was 51.1 µM (inactive); in the experiment on K562 it was 31 µM (inactive). Further, the GI50 in the experiment on KM12 is 46.7 µM (inactive); with PC-3, 24.5 µM (inactive); with RPMI-8226, 30.3 µM (inactive); in the experiment on MDA-MB-435, 35.4 µM (inactive); in the experiment with OVCAR-5, 41.6 µM (inactive); with HCT-15, 25.8 µM. The GI50 in the experiment on A498 was 40.6 µM (inactive); in the experiment with SK-MEL-2, 39.8 µM (inactive); in the experiment with MDA-MB-231, 29.4 µM (inactive); in the experiment on DU-145, 71.9 µM (inactive); in the experiment on 786-0 it was 20 µM (inactive); with IGROV-1 it was 27 µM (inactive). Besides, the GI50 in the experiment on Hs-578T is 39.2 µM (inactive).

As to `CC1=NN(C(=O)CC(=O)Nc2cccc(Cl)c2)C(=O)C1/N=N/c1ccc(C(=O)O)cc1` (stereo not given), the GI50 in the experiment with U-251 is > 100 µM (inactive); with SF-295, > 100 µM (inactive); in the experiment with CCRF-CEM, 48.4 µM (inactive); with UO-31, 65.2 µM (inactive); with K562, > 100 µM (inactive); in the experiment with NCI/ADR-RES it was > 100 µM (inactive). Besides, the GI50 is > 100 µM (inactive) in the experiment with KM12; > 100 µM (inactive) in the experiment on PC-3; > 100 µM (inactive) with RPMI-8226; > 100 µM (inactive) in the experiment with MDA-MB-435; > 100 µM (inactive) in the experiment with OVCAR-5; over 100 µM in the experiment on HCT-15. Further, the GI50 in the experiment with A498, with SK-MEL-2, with MDA-MB-231, with DU-145, in the experiment with 786-0 and in the experiment with IGROV-1 was > 100 µM (inactive) each time. The GI50 in the experiment on Hs-578T was > 100 µM (inactive).

`Cc1ccc(S(=O)(=O)N2CCN(CCO)CCN(S(=O)(=O)c3ccc(C)cc3)CCN(CCO)CC2)cc1`: the GI50 was 25.4 µM (inactive) with U-251; 31.7 µM (inactive) with SF-295; 22.9 µM (inactive) in the experiment on CCRF-CEM; 22.6 µM (inactive) in the experiment with UO-31; 17.1 µM (inactive) with K562; 18.5 µM (inactive) in the experiment on NCI/ADR-RES. The GI50 with KM12 was 20.6 µM (inactive); in the experiment on PC-3, 33 µM (inactive); in the experiment on MDA-MB-435, 15.1 µM (inactive); in the experiment on OVCAR-5 it was 44.1 µM (inactive); in the experiment on HCT-15, 18.6 µM; in the experiment on A498, 24.7 µM (inactive). Further, the GI50 is 16.5 µM (inactive) in the experiment on SK-MEL-2; 21.7 µM (inactive) in the experiment with MDA-MB-231; 15 µM (inactive) in the experiment on DU-145; 23.6 µM (inactive) with 786-0; 21.5 µM (inactive) in the experiment with IGROV-1; 30.1 µM (inactive) in the experiment with Hs-578T.

With `O=C(/C=C/c1ccc(O)c([N+](=O)[O-])c1)CC(=O)/C=C/c1ccc(O)c([N+](=O)[O-])c1`, the GI50 in the experiment with U-251 was 21.4 µM (inactive); in the experiment with SF-295, 62.5 µM (inactive); in the experiment on SK-OV-3, 83.2 µM (inactive); in the experiment on CCRF-CEM it was 30.5 µM (inactive); in the experiment with UO-31 it was > 100 µM (inactive); with NCI/ADR-RES, 35.3 µM (inactive). For the same compound, the GI50 in the experiment with KM12 was 30.5 µM (inactive); in the experiment on PC-3, 56.4 µM (inactive); in the experiment on RPMI-8226, 14.4 µM (inactive); with MDA-MB-435 it was 36.1 µM (inactive); in the experiment on OVCAR-5, 44.9 µM (inactive); in the experiment on HCT-15, 38.5 µM. Besides, the GI50 is 41.1 µM (inactive) in the experiment with SK-MEL-2; 23.4 µM (inactive) in the experiment with MDA-MB-231; 28.4 µM (inactive) in the experiment on DU-145; > 100 µM (inactive) in the experiment with 786-0; 24.9 µM (inactive) in the experiment with IGROV-1; > 100 µM (inactive) in the experiment with Hs-578T.

On to `Cc1cc(NS(=O)(=O)c2ccc(Nc3c4ccccc4nc4ccc(C(=O)Nc5ccc(S(=O)(=O)N=C(N)N)cc5)cc34)cc2)no1`, for which the GI50 with U-251 was > 100 µM (inactive); in the experiment with SF-295, > 100 µM (inactive); in the experiment with SK-OV-3 it was > 100 µM (inactive); with CCRF-CEM it was 66.1 µM (inactive); in the experiment with UO-31, > 100 µM (inactive); in the experiment on K562, > 100 µM (inactive). For the same compound, the GI50 with NCI/ADR-RES, in the experiment on KM12, with PC-3, with RPMI-8226, in the experiment on MDA-MB-435 and in the experiment with OVCAR-5 was > 100 µM (inactive) in each case. Moreover, the GI50 with HCT-15 is over 100 µM; in the experiment with SK-MEL-2, > 100 µM (inactive); with MDA-MB-231, > 100 µM (inactive); in the experiment on DU-145 it was > 100 µM (inactive); in the experiment on 786-0 it was > 100 µM (inactive); in the experiment on IGROV-1, > 100 µM (inactive). The GI50 with Hs-578T is > 100 µM (inactive).

Take `Cc1cc(C)c2c(n1)S(=O)(=O)N(CCCN1CCN(c3cccc(Cl)c3)CC1)C(C(=O)c1ccccc1)=C2O`: the GI50 in the experiment on U-251 is 37.6 µM (inactive); with SF-295, 31.8 µM (inactive); in the experiment with SK-OV-3, 33.7 µM (inactive); with CCRF-CEM, 25.9 µM (inactive); in the experiment with UO-31 it was 19.2 µM (inactive); in the experiment on K562 it was 35.6 µM (inactive). Besides, the GI50 in the experiment on NCI/ADR-RES is 20.6 µM (inactive); with KM12, 33.7 µM (inactive); in the experiment with PC-3, 30.8 µM (inactive); in the experiment on MDA-MB-435, 27 µM (inactive); in the experiment on OVCAR-5, 45 µM (inactive); in the experiment with HCT-15 it was 24.8 µM. Also, the GI50 in the experiment with A498 was 28.8 µM (inactive); in the experiment with SK-MEL-2 it was 32.4 µM (inactive); in the experiment on MDA-MB-231, 44.1 µM (inactive); with DU-145, 36.7 µM (inactive); with 786-0 it was 19.5 µM (inactive); in the experiment on IGROV-1, 40.3 µM (inactive). For the same compound, in the experiment with Hs-578T, the GI50 is 65.8 µM (inactive).

As to `COC(=O)c1cc(C)ccc1C1CN=NC12Cc1ccc(C)cc1C2=O` (stereo not given), the GI50 is 44.7 µM (inactive) in the experiment on U-251; 38 µM (inactive) in the experiment on SF-295; 38.1 µM (inactive) with SK-OV-3; 32.7 µM (inactive) in the experiment on CCRF-CEM; 27.7 µM (inactive) in the experiment with UO-31; 19.4 µM (inactive) with K562. Moreover, the GI50 in the experiment on NCI/ADR-RES is 28.5 µM (inactive); in the experiment with KM12, 29 µM (inactive); in the experiment with PC-3, 32.4 µM (inactive); in the experiment on MDA-MB-435, 32.2 µM (inactive); in the experiment with OVCAR-5, > 100 µM (inactive); in the experiment with HCT-15 it was 40.1 µM. For the same compound, the GI50 is 29.5 µM (inactive) in the experiment with A498; 57.9 µM (inactive) in the experiment with SK-MEL-2; 63.8 µM (inactive) with MDA-MB-231; 82.8 µM (inactive) in the experiment with DU-145; > 100 µM (inactive) in the experiment with 786-0; 63.4 µM (inactive) with IGROV-1. Further, the GI50 in the experiment with Hs-578T is 45.6 µM (inactive).

Turning to `O=C1c2ccccc2-n2c1nc1ccc([N+](=O)[O-])cc1c2=O`, the GI50 was > 100 µM (inactive) in the experiment with U-251; 24.1 µM (inactive) with SF-295; > 100 µM (inactive) in the experiment with SK-OV-3; 34.8 µM (inactive) in the experiment on CCRF-CEM; 42.9 µM (inactive) in the experiment with UO-31; 30.1 µM (inactive) with K562. Also, the GI50 with NCI/ADR-RES was > 100 µM (inactive); in the experiment with KM12, 68.9 µM (inactive); with PC-3, > 100 µM (inactive); in the experiment with RPMI-8226, 25.2 µM (inactive); in the experiment on MDA-MB-435, > 10 µM (inactive); with OVCAR-5, > 100 µM (inactive). Also, the GI50 in the experiment with HCT-15 is 29.3 µM; in the experiment with A498, 5.62 µM (inactive); in the experiment on MDA-MB-231, 45.7 µM (inactive); in the experiment with DU-145, > 100 µM (inactive); in the experiment on 786-0, 46.5 µM (inactive); with IGROV-1 it was 53.7 µM (inactive). In addition, in the experiment with Hs-578T, the GI50 is > 100 µM (inactive).

As for `c1csc(-c2nccc3c2[nH]c2ccccc23)c1`, the GI50 was 25.4 µM (inactive) with U-251; 16.1 µM (inactive) in the experiment on SF-295; 14.2 µM (inactive) in the experiment on SK-OV-3; 21.2 µM (inactive) with CCRF-CEM; 25.6 µM (inactive) with K562; 22.2 µM (inactive) in the experiment on NCI/ADR-RES. Besides, the GI50 in the experiment with KM12 is 19.5 µM (inactive); in the experiment with PC-3 it was 21.6 µM (inactive); with MDA-MB-435, 18.3 µM (inactive); with OVCAR-5, 28.2 µM (inactive); in the experiment with HCT-15, 20.4 µM; with A498, 15.3 µM (inactive). Besides, the GI50 in the experiment on SK-MEL-2 is 21.8 µM (inactive); in the experiment on MDA-MB-231 it was 20.6 µM (inactive); with DU-145 it was 27.9 µM (inactive); with 786-0, 18.1 µM (inactive); in the experiment on IGROV-1 it was 18.4 µM (inactive); in the experiment with Hs-578T, 46 µM (inactive).

Usually GI50 stands for the concentration that inhibits growth by half.

These data come from ChEMBL document CHEMBL1201862, “PubChem BioAssay data set” (2004).
